The IC50 is the concentration needed to halve the response being measured. Higher therefore signals weaker potency in that assay.

A value given as a limit tells only on which side of the number the result lay.

Consider 36 molecules from patent publication US9540356B2 (priority 2012, dated 2017).

For experiment [1], the system named is retrograde transport of Shiga toxin subunit B (StxB). Type of experiment: cell-based.
Experiment [2] concerns HeLa cells. The format is cell-based, human.
Experiment [3] concerns HeLa cells. Description: cells. Type of experiment: cell-based. Conditions: Homo sapiens.

As to `CCc1ccc(C2Nc3ccccc3C(=O)N2c2ccccc2)s1` (stereo not drawn) [Compound 7, 2-(5-Ethylthiophen-2-yl)-3-phenyl-2,3-dihydroquinazolin-4(1H)-one], the “retrograde transport, % control” value in experiment [1] is 13.5%. For the same molecule, the “R (Stx), protective index” value in experiment [2] was 120.

On to `O=C1c2ccccc2NC(c2ccc(Br)s2)N1c1ccccc1` (stereo not drawn) [Compound 9, 2-(5-Bromothiophen-2-yl)-3-phenyl-2,3-dihydroquinazolin-4(1H)-one], for which, in experiment [3], the IC50 was 13.7 µM. Further, the “R (Stx), protective index” value in experiment [2] was determined as 27.9. In the case of `O=C1c2ccccc2NC(c2ccc(-c3ccccc3)s2)N1c1ccccc1` (stereo not drawn) [Compound 13, 3-Phenyl-2-(5-phenylthiophen-2-yl)-2,3-dihydroquinazolin-4(1H)-one], in experiment [1], the “retrograde transport, % control” value is on record as 13.1%. Besides, the “R (Stx), protective index” value in experiment [2] is listed as 153.

For the molecule `CSc1ccc(C2Nc3ccccc3C(=O)N2c2ccccc2)s1` (stereo not drawn) [Compound 17, 2-(5-(Methylthio)thiophen-2-yl)-3-phenyl-2,3-dihydroquinazolin-4(1H)-one], in experiment [1], the “retrograde transport, % control” value is listed as 22.8%. Moreover, in experiment [2], the “R (Stx), protective index” value was 43. Consider `O=C1c2ccccc2NC(c2ccc(-c3cccs3)s2)N1c1ccccc1` (stereo not drawn) [Compound 18, 2-([2,2′-Bithiophen]-5-yl)-3-phenyl-2,3-dihydroquinazolin-4(1H)-one], for which, in experiment [1], the “retrograde transport, % control” value turned out to be 17.1%. In addition, the “R (Stx), protective index” value in experiment [2] came to 50. As to `O=C1c2ccccc2NC(c2ccc(-c3ccccn3)s2)N1c1ccccc1` (stereo not drawn) [Compound 19, 3-Phenyl-2-(5-(pyridin-2-yl)thiophen-2-yl)-2,3-dihydroquinazolin-4(1H)-one], the “retrograde transport, % control” value in experiment [1] came out at 10.7%. Moreover, in experiment [2], the “R (Stx), protective index” value amounted to 46. Take `O=C1c2ccccc2NC(c2ccc(-c3ccco3)s2)N1c1ccccc1` (stereo not drawn) [Compound 20, 2-(5-(Furan-2-yl)thiophen-2-yl)-3-phenyl-2,3-dihydroquinazolin-4(1H)-one]: in experiment [1], the “retrograde transport, % control” value is on record as 6.5%. Moreover, in experiment [2], the “R (Stx), protective index” value amounted to 41. Take `Cc1nc(-c2ccc(C3Nc4ccccc4C(=O)N3c3ccccc3)s2)cs1` (stereo not drawn) [Compound 21, 2-(5-(2-Methylthiazol-4-yl)thiophen-2-yl)-3-phenyl-2,3-dihydroquinazolin-4(1H)-one]: the “retrograde transport, % control” value in experiment [1] is on record as 0.0%. Also, the “R (Stx), protective index” value in experiment [2] turned out to be 109. On to `Cc1ccc(C2Nc3ccc(F)cc3C(=O)N2c2ccccc2)s1` (stereo not drawn) [Compound 25, 6-Fluoro-2-(5-methylthiophen-2-yl)-3-phenyl-2,3-dihydroquinazolin-4(1H)-one], for which, in experiment [2], the “R (Stx), protective index” value is recorded as 133. As for `CSc1ccccc1N1C(=O)c2ccccc2NC1c1ccc(C)s1` (stereo not drawn) [Compound 31, 3-(2-(Methylthio)phenyl)-2-(5-methylthiophen-2-yl)-2,3-dihydroquinazolin-4(1H)-one], in experiment [2], the “R (Stx), protective index” value is recorded as 99. As for `Cc1ccc(C2Nc3ccccc3C(=O)N2c2ccccc2Cl)s1` (stereo not drawn) [Compound 32, 3-(2-Chlorophenyl)-2-(5-methylthiophen-2-yl)-2,3-dihydroquinazolin-4(1H)-one], the “R (Stx), protective index” value in experiment [2] is 68. As to `Cc1nc(-c2ccc(C3Nc4ccc(F)cc4C(=O)N3c3ccccc3)s2)cs1` (stereo not drawn) [Compound 34, 6-Fluoro-2-(5-(2-methylthiazol-4-yl)thiophen-2-yl)-3-phenyl-2,3-dihydroquinazolin-4(1H)-one], the “R (Stx), protective index” value in experiment [2] is given as 295. Regarding `Cc1ccc(C2N(C)c3ccccc3C(=O)N2c2ccccc2)s1` (stereo not drawn) [Compound 35, 1-Methyl-2-(5-methylthiophen-2-yl)-3-phenyl-2,3-dihydroquinazolin-4(1H)-one], in experiment [2], the “R (Stx), protective index” value is 80. Turning to `CN1c2ccccc2C(=O)N(c2ccccc2)C1c1ccc(-c2ccccc2)s1` (stereo not drawn) [Compound 36, 1-Methyl-3-phenyl-2-(5-phenylthiophen-2-yl)-2,3-dihydroquinazolin-4(1H)-one], the “retrograde transport, % control” value in experiment [1] is recorded as 7.1%. The “R (Stx), protective index” value in experiment [2] worked out at 29. Taken in the same sequence, the figures for `CN1c2ccccc2C(=O)N(c2ccccc2)C1c1ccc(-c2ccccn2)s1` (stereo not drawn) [Compound 37, 1-Methyl-3-phenyl-2-(5-(pyridin-2-yl)thiophen-2-yl)-2,3-dihydroquinazolin-4(1H)-one] were 10.3% and 111. For `CSc1ccc(C2N(C)c3ccccc3C(=O)N2c2ccccc2)s1` (stereo not drawn) [Compound 38, 1-Methyl-2-(5-(methylthio)thiophen-2-yl)-3-phenyl-2,3-dihydroquinazolin-4(1H)-one], in experiment [1], the “retrograde transport, % control” value turned out to be 18.2%. Moreover, the “R (Stx), protective index” value in experiment [2] is on record as 60. Turning to `CN1c2ccccc2C(=O)N(c2ccccc2)C1c1ccc(-c2cccs2)s1` (stereo not drawn) [Compound 39, 2-([2,2′-Bithiophen]-5-yl)-1-methyl-3-phenyl-2,3-dihydroquinazolin-4(1H)-one], the “retrograde transport, % control” value in experiment [1] is 6.2%. Further, the “R (Stx), protective index” value in experiment [2] was found to be 36. As to `CN1c2ccccc2C(=O)N(c2ccccc2)C1c1ccc(Br)s1` (stereo not drawn) [Compound 43, 2-(5-Bromothiophen-2-yl)-1-methyl-3-phenyl-2,3-dihydroquinazolin-4(1H)-one], the “R (Stx), protective index” value in experiment [2] was found to be 40. Same read-out and setting: the value for `CN1c2ccccc2C(=O)N(c2ccccc2)C1c1ccc(Sc2ccccc2)s1` (stereo not drawn) [Compound 44, 1-Methyl-3-phenyl-2-(5-(phenylthio)thiophen-2-yl)-2,3-dihydroquinazolin-4(1H)-one] was 71; that for `CN1c2ccccc2C(=O)N(c2ccccc2)C1c1ccc(-c2ccoc2)s1` (stereo not drawn) [Compound 47, 2-(5-(Furan-3-yl)thiophen-2-yl)-1-methyl-3-phenyl-2,3-dihydroquinazolin-4(1H)-one] was 49. `Cc1ccc(C2N(C)c3ccccc3C(=O)N2c2ccccc2Cl)s1` (stereo not drawn) [Compound 54, 3-(2-Chlorophenyl)-1-methyl-2-(5-methylthiophen-2-yl)-2,3-dihydroquinazolin-4(1H)-one] returned an IC50 in experiment [3] of 8.2 µM. For the same molecule, the “R (Stx), protective index” value in experiment [2] is 27. Taken in the same sequence, the figures for `Cc1ccc(C2N(C)c3ccccc3C(=O)N2c2ccccc2I)s1` (stereo not drawn) [Compound 55, 3-(2-Iodophenyl)-1-methyl-2-(5-methylthiophen-2-yl)-2,3-dihydroquinazolin-4(1H)-one] were 5.4 µM and 25.

For the molecule `COc1ccccc1N1C(=O)c2ccccc2N(C)C1c1ccc(C)s1` (stereo not drawn) [Compound 56, 3-(2-Methoxyphenyl)-1-methyl-2-(5-methylthiophen-2-yl)-2,3-dihydroquinazolin-4(1H)-one], the IC50 in experiment [3] stood at 5.4 µM. Moreover, in experiment [2], the “R (Stx), protective index” value turned out to be 26. The molecule `CSc1ccccc1N1C(=O)c2ccccc2N(C)C1c1ccc(C)s1` (stereo not drawn) [Compound 57, 1-Methyl-3-(2-(methylthio)phenyl)-2-(5-methylthiophen-2-yl)-2,3-dihydroquinazolin-4(1H)-one] came in with an IC50 in experiment [3] of 3.8 µM. Moreover, in experiment [2], the “R (Stx), protective index” value worked out at 25. On to `Cc1ccc(C2N(C)c3ccccc3C(=O)N2c2ccccc2F)s1` (stereo not drawn) [Compound 58, 3-(2-Fluorophenyl)-1-methyl-2-(5-methylthiophen-2-yl)-2,3-dihydroquinazolin-4(1H)-one], for which half-maximal inhibition in experiment [3] (IC50) was put at 5.5 µM. In addition, the “R (Stx), protective index” value in experiment [2] worked out at 25. On to `Cc1ccc(C2N(C)c3ccccc3C(=O)N2c2ccccc2-c2ccccc2)s1` (stereo not drawn) [Compound 59, 3-([1,1′-Biphenyl]-2-yl)-1-methyl-2-(5-methylthiophen-2-yl)-2,3-dihydroquinazolin-4(1H)-one], for which the IC50 in experiment [3] turned out to be 3.7 µM. In addition, the “R (Stx), protective index” value in experiment [2] was 27. As for `Cc1ccc(C2N(C)c3ccccc3C(=O)N2c2ccccc2S(=O)(=O)c2ccccc2)s1` (stereo not drawn) [Compound 60, 1-Methyl-2-(5-methylthiophen-2-yl)-3-(2-(phenylsulfonyl)phenyl)-2,3-dihydroquinazolin-4(1H)-one], the “R (Stx), protective index” value in experiment [2] stood at 320. Turning to `Cc1nc(-c2ccc(C3N(C)c4ccc(F)cc4C(=O)N3c3ccccc3)s2)cs1` (stereo not drawn) [Compound 61, 6-Fluoro-1-methyl-2-(5-(2-methylthiazol-4-yl)thiophen-2-yl)-3-phenyl-2,3-dihydroquinazolin-4(1H)-one], the “R (Stx), protective index” value in experiment [2] was 40. `CN1c2ccccc2C(=O)N(c2ccccc2)C1c1ccc(CN=[N+]=[N-])s1` (stereo not drawn) [Compound 62, 2-(5-(Azidomethyl)thiophen-2-yl)-1-methyl-3-phenyl-2,3-dihydroquinazolin-4(1H)-one] yielded an IC50 in experiment [3] of 12 µM. Still for that read-out and setting: as for `CN1c2ccccc2C(=O)N(c2ccccc2)C1c1ccc(-c2csc(CN=[N+]=[N-])n2)s1` (stereo not drawn) [Compound 63, 2-(5-(2-(Azidomethyl)thiazol-4-yl)thiophen-2-yl)-1-methyl-3-phenyl-2,3-dihydroquinazolin-4(1H)-one], the figure is 3 to 5 µM; as for `CN1c2ccc(F)cc2C(=O)N(c2ccccc2)C1c1ccc(-c2csc(CN=[N+]=[N-])n2)s1` (stereo not drawn) [Compound 64, 2-(5-(2-(Azidomethyl)thiazol-4-yl)thiophen-2-yl)-6-fluoro-1-methyl-3-phenyl-2,3-dihydroquinazolin-4(1H)-one], under 3 µM.

`Cc1nc(-c2ccc(C3N(C)c4ccccc4C(=O)N3c3ccccc3C(=O)c3ccccc3)s2)cs1` (stereo not drawn) [Compound 65, 3-(2-Benzoylphenyl)-1-methyl-2-(5-(2-methylthiazol-4-yl)thiophen-2-yl)-2,3-dihydroquinazolin-4(1H)-one] had an IC50 in experiment [3] of 1 to 3 µM.

In experiment [3], `Cc1nc(-c2ccc(C3N(C)c4ccc(F)cc4C(=O)N3c3ccccc3C(=O)c3ccccc3)s2)cs1` (stereo not drawn) [Compound 66] gave an IC50 of 1 µM. `C=CCOC(=O)c1ccccc1N1C(=O)c2ccccc2N(C)C1c1ccc(C)s1` (stereo not drawn) [Compound 67, Allyl 2-(1-methyl-2-(5-methylthiophen-2-yl)-4-oxo-1,4-dihydroquinazolin-3(2H)-yl)benzoate] gave an IC50 in experiment [3] of 13 µM. Against the preceding molecule, the IC50 is about 13-fold higher. `COCCOc1ccccc1N1C(=O)c2ccccc2N(C)C1c1ccc(C)s1` (stereo not drawn) [Compound 68, 3-(2-(2-Methoxyethoxy)phenyl)-1-methyl-2-(5-methylthiophen-2-yl)-2,3-dihydroquinazolin-4(1H)-one] had an IC50 in experiment [3] of 4.2 µM. Still for that read-out and setting: as for `Cc1ccc(C2N(C)c3ccccc3C(=O)N2c2ccccc2C(=O)O)s1` (stereo not drawn) [Compound 69, 2-(1-Methyl-2-(5-methylthiophen-2-yl)-4-oxo-1,4-dihydroquinazolin-3(2H)-yl)benzoic acid], the figure is 11.2 µM.
